Laboratory results reported in patent US8957025B2, “Enkephalin analogues” (Pfizer Inc., priority 2011, dated 2015).

Legend:
[1] = Lipophilicity (LogD), shake-flask octanol/buffer pH 7.4; assay type: physicochemical; conditions: octanol / 0.1M phosphate buffer pH 7.4
Excerpt: LogD octanol (pH 7.4) is a measure of lipophilicity that accounts for both hydrophobic and hydrogen-bonding interactions of a given substrate. This assay is based on shake-flask methodology, performed in a fully automated manner in a 0.1M phosphate buffer pH7.4-octanol system.
After addition of the test substance in DMSO stock solution to the mixture and vigorous agitation followed by separation of the octanol and buffer layers by centrifugation, duplicate samples are removed from each layer and diluted prior to analysis by LC-MS/MS. Peak area is corrected for dilutions and the following equation used to calculate the logD (pH 7.4): […]
The duplicate logD values must be with 0.4 log units of each other and the positive controls must be within 0.2 log units of the known logD value.

[2] = Human liver microsomal stability assay (HLM); assay type: in vitro ADME; conditions: pooled liver microsomes, pH 7.4, 1 μM substrate, 37° C.
Excerpt: In vitro measurement of substrate metabolism can be determined using the microsomal cytochrome P450 mono-oxygenase system. This is a useful application in ranking clearance of a number of compounds by Phase I (including cytochrome P450) metabolism prior to in vivo assessment Measurement of intrinsic clearance using these methods also allows a comparison of species difference to be made to assist with translation of pharmacokinetic parameters from preclinical to clinical study.
Human and rat Liver microsomal assays were performed using pooled microsomes from the Pfizer Global Supply (BD Gentest™). Chemical reagents were purchased from commercial sources (Sigma-Aldrich) and drug entities synthesised at Pfizer Global Research. Incubation mixtures contained 50 mM phosphate buffer pH 7.4, 5 mM MgCl2, 5 mM isocitric acid and 1 unit/ml isocitric dehydrogenase. The microsomes were defrosted at room temperature and sufficient volumes added to give a final concentration of 0.5 nmol cytochrome P450/ml. Following the addition of 1 μM of substrate, the incubation was pre-incubated at 37° C. for 5 minutes. The reaction was then initiated by the addition of 1 mM NADP and incubation aliquots are taken over a 1 h time course. The reaction was subsequently stopped by addition of acetonitrile cooled on ice. […]
The intrinsic clearance in rat or human liver microsomes is calculated from: […]

Dofetilide binding = conditions: probe dofetilide
MDR = MDR Papp permeability; assay type: in vitro ADME; conditions: not told
mu opioid receptor = mu opioid receptor (UniProt P35372); assay: Mu-opioid receptor agonist activity; assay type: cell-based
Method: The ability of agonists to cause recruitment of beta-arrestin to the mu opioid receptor was measured using DiscoveRx PathHunter technology. A pro-linked tagged mu-opioid receptor and an EA-tagged beta-arrestin were expressed in U2OS cells and beta-arrestin recruitment measured following the methodology in McGuinness et al., 2009 (J Biomol Screen 14:49-58, Characterizing cannabinoid CB2 receptor ligands using DiscoverRx PathHunter beta-arrestin assay—McGuinness D., Malikzay A., Visconti R., Lin K., Bayne M., Monsma F., Lunn C A.)
The ability of mu opioid receptor agonists to inhibit forskolin stimulated cAMP production was measured in CHO cells recombinantly expressing the mu opioid receptor, using alphascreen technology as described in Nickolls et al., 2005, with the additional inclusion of 50 uM forskolin in the assay buffer. (J Pharmacol Exp Ther 313; 1281-88, Functional selectivity of melanocortin 4 receptor peptide and non-peptide agonists: Evidence for ligand specific conformational states. Nickolls S A., Fleck B., Hoare S., Maki R.)
Functional activity at the mu-opioid receptors was determined using the electrically stimulated guinea pig isolated myenteric plexus preparation following the methodology of Hughes, J.; Kosterlitz, H. W. and Leslie, F. M. Br. J. Pharmacol. 1975, 53, 371.

Structure (SMILES)	logD [1]	microsomal CLint at 1 μM [2] [µL/min/mg]	IC50 (Dofetilide binding) [nM]	Papp (MDR) [×10⁻⁶ cm/s]	IC50 (mu opioid receptor) [nM]
Cc1cc(O)cc(C)c1C[C@H](N)C(=O)N[C@H](C)C(=O)NC[C@@H](N)Cc1ccccc1 [Example 1, 2,6-Dimethyl-L-tyrosyl-N-[(2S)-2-amino-3-phenylpropyl]-D-alaninamide]	0.05	8.4	> 22000	0.7	9.8
Cc1cc(O)cc(C)c1C[C@H](N)C(=O)N[C@H](C)C(=O)NC[C@H](N)Cc1ccccc1 [Example 2, 2,6-Dimethyl-L-tyrosyl-N-[(2R)-2-amino-3-phenylpropyl]-D-alaninamide]	-0.2	< 8	> 22000	0.6	6
